From publication PMC9963121, “Development of Combretastatin A-4 Analogues as Potential Anticancer Agents with Improved Aqueous Solubility” (Molecules, 2023)

Test system: HCT-116 colorectal cancer cell
Experiment: MTT cell growth inhibition assay, HCT-116 colorectal cancer cells
Format: cell-based, human
Conditions: Homo sapiens, HCT-116; MTT; mean ± SD of three experiments
Text: (§1) Initially, we designed and synthesised seven compounds—9a and 12a1–12a6—and evaluated the anticancer activity and aqueous solubility. We evaluated the cytotoxic effects of these stilbene nitrile analogues against a panel of four human cancer cell lines (HCT-116, BEL-7402, MCF-7 and AGS) and two human non-cancerous normal cell lines (L-02 and MCF-10A), using CA-4 as a control. The compounds were screened for aqueous solubility in 0.01 M PBS using a high throughput UV method. […] It is possible that the size of the nitrogen heterocycle had little effect on the activity of these compounds. […] The aqueous solubility of all the compounds 12a1–12a6 was higher than that of 9a, particularly that of 12a1 and 12a2 containing piperazine rings. […] Of the six compounds with improved aqueous solubility, 12a1 had the best activity.
(§2) All human cell lines were used in this study. AGS gastric cancer cell, BEL-7402 liver cancer cell, HCT-116 colorectal cancer cell, L-02 normal liver cell, MCF-7 breast cancer cell, and MCF-10A normal breast cell were initially purchased from American Type Culture Collection (ATCC, Manassas, VA, USA). RPMI-1640 media, DMEM and FBS, were provided by Gibco Company. The cells were maintained in DMEM or RPMI-1640, supplemented with 10% FBS, 100 IU/mL penicillin and […] streptomycin, and at 37 °C in a humidified atmosphere containing 5% CO2.
(§3) The experiment was carried out according to the method of reference.
For `CCN(CC)CC(=O)Nc1ccc(/C=C(\C#N)c2cc(OC)c(OC)c(OC)c2)cc1` [12a4], the IC50 was 5.64 ± 0.15 µM. With `COc1cc(/C(C#N)=C/c2ccc(NC(=O)CN3CCOCC3)cc2)cc(OC)c1OC` [12a5] the IC50 was 6.87 ± 1.04 µM. For `COc1cc(/C(C#N)=C/c2ccc(NC(=O)CN3CCN(C)CC3)cc2C)cc(OC)c1OC` [12b1], the IC50 was 5.25 ± 1.6 µM. Compound `CCN1CCN(CC(=O)Nc2ccc(/C=C(\C#N)c3cc(OC)c(OC)c(OC)c3)c(C)c2)CC1` [12b2] has an IC50 of 6.68 ± 1.1 µM. `COc1ccc(/C(C#N)=C/c2ccc(NC(=O)CN3CCN(C)CC3)cc2)cc1OC` [12c1] showed an IC50 of 4.4 ± 0.79 µM. For `CCN1CCN(CC(=O)Nc2ccc(/C=C(\C#N)c3ccc(OC)c(OC)c3)cc2)CC1` [12c2], the IC50 was 21.6 ± 2.87 µM.

Test system: AGS gastric cancer cell
Experiment: MTT cell growth inhibition assay, AGS gastric cancer cells
Format: cell-based
Conditions: Homo sapiens, mean ± SD of three experiments
Text: as §1, §2, §3
In the case of `CCN(CC)CC(=O)Nc1ccc(/C=C(\C#N)c2cc(OC)c(OC)c(OC)c2)cc1` [12a4], the IC50 is reported as 12.6 ± 1.79 µM. Compound `COc1cc(/C(C#N)=C/c2ccc(NC(=O)CN3CCOCC3)cc2)cc(OC)c1OC` [12a5] has an IC50 of 29.1 ± 1.98 µM. With `COc1cc(/C(C#N)=C/c2ccc(NC(=O)CN3CCN(C)CC3)cc2C)cc(OC)c1OC` [12b1] the IC50 was 15.6 ± 0.73 µM. Compound `CCN1CCN(CC(=O)Nc2ccc(/C=C(\C#N)c3cc(OC)c(OC)c(OC)c3)c(C)c2)CC1` [12b2] has an IC50 of 15 ± 2.32 µM. For `COc1ccc(/C(C#N)=C/c2ccc(NC(=O)CN3CCN(C)CC3)cc2)cc1OC` [12c1], the IC50 was 29.1 ± 1.98 µM. For `CCN1CCN(CC(=O)Nc2ccc(/C=C(\C#N)c3ccc(OC)c(OC)c3)cc2)CC1` [12c2], the IC50 was 48.8 ± 2.44 µM.

Test system: BEL-7402 liver cancer cell
Experiment: MTT cell growth inhibition assay, BEL-7402 liver cancer cells
Format: cell-based
Conditions: Homo sapiens, mean ± SD of three experiments, read-out: IC50 BEL-7402 Hepatoma Cells
Text: as §1, §2, §3
With `CCN(CC)CC(=O)Nc1ccc(/C=C(\C#N)c2cc(OC)c(OC)c(OC)c2)cc1` [12a4] the IC50 was 3.81 ± 0.43 µM. `COc1cc(/C(C#N)=C/c2ccc(NC(=O)CN3CCOCC3)cc2)cc(OC)c1OC` [12a5] gave an IC50 of 6.74 ± 1.97 µM. Work on `COc1cc(/C(C#N)=C/c2ccc(NC(=O)CN3CCN(C)CC3)cc2C)cc(OC)c1OC` [12b1] yielded an IC50 of 6.62 ± 2.09 µM. Compound `CCN1CCN(CC(=O)Nc2ccc(/C=C(\C#N)c3cc(OC)c(OC)c(OC)c3)c(C)c2)CC1` [12b2] has an IC50 of 7.42 ± 1.76 µM. `COc1ccc(/C(C#N)=C/c2ccc(NC(=O)CN3CCN(C)CC3)cc2)cc1OC` [12c1] gave an IC50 of 8.95 ± 1.37 µM. With `CCN1CCN(CC(=O)Nc2ccc(/C=C(\C#N)c3ccc(OC)c(OC)c3)cc2)CC1` [12c2] the IC50 was 10.1 ± 2.18 µM.

Test system: MCF-7 breast cancer cell
Experiment: MTT cell growth inhibition assay, MCF-7 breast cancer cells
Format: cell-based
Conditions: Homo sapiens, MCF7, mean ± SD of three experiments
Text: as §1, §2, §3
With `CCN(CC)CC(=O)Nc1ccc(/C=C(\C#N)c2cc(OC)c(OC)c(OC)c2)cc1` [12a4] the IC50 was 13.3 ± 2.59 µM. `COc1cc(/C(C#N)=C/c2ccc(NC(=O)CN3CCOCC3)cc2)cc(OC)c1OC` [12a5] showed an IC50 of 48.3 ± 5.41 µM. Work on `COc1cc(/C(C#N)=C/c2ccc(NC(=O)CN3CCN(C)CC3)cc2C)cc(OC)c1OC` [12b1] yielded an IC50 of 22.5 ± 3.6 µM. With `CCN1CCN(CC(=O)Nc2ccc(/C=C(\C#N)c3cc(OC)c(OC)c(OC)c3)c(C)c2)CC1` [12b2] the IC50 was 19.8 ± 3.16 µM. `COc1ccc(/C(C#N)=C/c2ccc(NC(=O)CN3CCN(C)CC3)cc2)cc1OC` [12c1] showed an IC50 of 33.9 ± 2.22 µM. `CCN1CCN(CC(=O)Nc2ccc(/C=C(\C#N)c3ccc(OC)c(OC)c3)cc2)CC1` [12c2] gave an IC50 of 31.1 ± 4.38 µM.

Test system: L-02 normal liver cell
Experiment: MTT cell growth inhibition assay, L-02 normal liver cells
Format: cell-based
Conditions: Homo sapiens, mean ± SD of three experiments
Text: as §1, §2, §3
Work on `CCN(CC)CC(=O)Nc1ccc(/C=C(\C#N)c2cc(OC)c(OC)c(OC)c2)cc1` [12a4] yielded an IC50 of 69.4 ± 7.3 µM. `COc1cc(/C(C#N)=C/c2ccc(NC(=O)CN3CCOCC3)cc2)cc(OC)c1OC` [12a5] showed an IC50 of 40.7 ± 5.18 µM. `COc1cc(/C(C#N)=C/c2ccc(NC(=O)CN3CCN(C)CC3)cc2C)cc(OC)c1OC` [12b1] gave an IC50 of 20.3 ± 1.08 µM. For `CCN1CCN(CC(=O)Nc2ccc(/C=C(\C#N)c3cc(OC)c(OC)c(OC)c3)c(C)c2)CC1` [12b2], the IC50 was 22.1 ± 2.05 µM. In the case of `COc1ccc(/C(C#N)=C/c2ccc(NC(=O)CN3CCN(C)CC3)cc2)cc1OC` [12c1], the IC50 is reported as 23.5 ± 3.87 µM. Compound `CCN1CCN(CC(=O)Nc2ccc(/C=C(\C#N)c3ccc(OC)c(OC)c3)cc2)CC1` [12c2] has an IC50 of 22.1 ± 2.64 µM.

Test system: MCF-10A normal breast cell
Experiment: MTT cell growth inhibition assay, MCF-10A normal breast cells
Format: cell-based
Conditions: Homo sapiens, mean ± SD of three experiments, read-out: IC50 MCF-10A Normal Breast Epithelial Cells
Text: as §1, §2, §3
Work on `CCN(CC)CC(=O)Nc1ccc(/C=C(\C#N)c2cc(OC)c(OC)c(OC)c2)cc1` [12a4] yielded an IC50 of 24.8 ± 4.44 µM. In the case of `COc1cc(/C(C#N)=C/c2ccc(NC(=O)CN3CCOCC3)cc2)cc(OC)c1OC` [12a5], the IC50 is reported as over 100 µM. `COc1cc(/C(C#N)=C/c2ccc(NC(=O)CN3CCN(C)CC3)cc2C)cc(OC)c1OC` [12b1] gave an IC50 of 15.2 ± 0.66 µM. Compound `CCN1CCN(CC(=O)Nc2ccc(/C=C(\C#N)c3cc(OC)c(OC)c(OC)c3)c(C)c2)CC1` [12b2] has an IC50 of 20.2 ± 2.4 µM. For `COc1ccc(/C(C#N)=C/c2ccc(NC(=O)CN3CCN(C)CC3)cc2)cc1OC` [12c1], the IC50 was over 100 µM. `CCN1CCN(CC(=O)Nc2ccc(/C=C(\C#N)c3ccc(OC)c(OC)c3)cc2)CC1` [12c2] showed an IC50 of 29.7 ± 4.56 µM.

Test system: not listed separately
Experiment: Aqueous solubility in 0.01 M PBS, high throughput UV method
Format: physicochemical
Conditions: aqueous phosphate buffer, aqueous buffer; sodium phosphate buffer 0.01 M, pH 7.4, 22 ± 2 °C; mean ± SD
Text: as §1
The aqueous solubility was determined as a previously reported procedure. Put simply, a certain amount of powdered compound was placed in a 2 mL centrifuge tube and mixed with an appropriate volume of aqueous phosphate buffer (10 mM, pH 7.4) to make the whole system supersaturated. The mixtures were sonicated (KQ5200DE numerical control ultrasonic cleaner, Kunshan Ultrasonic Instrument Co., Ltd., SuZhou, China) for 20 min. After sonication, the mixture was allowed to equilibrate at RT (22 ± 2 °C) for 1.5 h with vortex shaking (1200 rpm). Then centrifuged at 3000 rpm for 15 min (1-14k, sigma, Darmstadt, Germany), the supernatant was filtered with a 0.22 µM filter membrane. And then, take 150 µL of filtrate and add it to 96-well UV plate with triplicate. Draw 150 μL of blank solution was added into plate as blank control. The 96-well UV plate prepared above was read on a Synergy HTX Multifunctional Microplate Reader (BioTek, Vermont, USA) at 294 nm. The absorbance of the sample was corrected according to the UV response of the sample and blank solution, and the corrected UV response values were used for solubility calculations by bringing into the standard curve of the compound. […]
1.5. Solubility Assessment
The aqueous solubility was determined as previously reported using the high throughput solubility screens procedure published by Bruno Bard et al [9. 10]. Put simply, a certain amount of powdered compound was placed in a 2 ml centrifuge tube and mixed with an appropriate volume of aqueous phosphate buffer (0.01 M, pH 7.4) to make the whole system supersaturated. The mixtures were sonicated (KQ5200DE numerical control ultrasonic cleaner, Kunshan Ultrasonic Instrument Co., Ltd., China) for 20 min. After sonication, the mixture was allowed to equilibrate at room temperature (22 ± 2°C) for 1.5 h with vortex shaking (1200 rpm). Then the centrifuge tube was put into the centrifuge (1-14k, sigma, Germany), centrifuged with 3000 rpm for 15 minutes, 0.22 µM filter membrane filtration supernatant, then take 150 µl filtrate and add it to 96-well UV plate, with three well for each compound. Draw 150 μL blank solution were added into 96 well-plate as blank control. The 96-well UV […]
plate prepared above was read on a SynergyHTX Multifunctional microplate reader (BioTek, USA) at 338 nm (compounds 12a-12d and 15-20) or 370 nm (compounds 9a-d). The absorbance of the sample was corrected according to the UV response of the sample and blank solution, and the corrected UV responses value were used for solubility calculations by bring into the standard curve of the compound. […]
For `CCN(CC)CC(=O)Nc1ccc(/C=C(\C#N)c2cc(OC)c(OC)c(OC)c2)cc1` [12a4], the solubility thermodynamic at 1.5 h was 15.5 ± 2.3 µg/mL. With `COc1cc(/C(C#N)=C/c2ccc(NC(=O)CN3CCOCC3)cc2)cc(OC)c1OC` [12a5] the solubility thermodynamic at 1.5 h was 15 ± 2.6 µg/mL. `COc1cc(/C(C#N)=C/c2ccc(NC(=O)CN3CCN(C)CC3)cc2C)cc(OC)c1OC` [12b1] gave a solubility thermodynamic at 1.5 h of 104 ± 19.8 µg/mL. Compound `CCN1CCN(CC(=O)Nc2ccc(/C=C(\C#N)c3cc(OC)c(OC)c(OC)c3)c(C)c2)CC1` [12b2] has a solubility thermodynamic at 1.5 h of 253 ± 30.7 µg/mL. `COc1ccc(/C(C#N)=C/c2ccc(NC(=O)CN3CCN(C)CC3)cc2)cc1OC` [12c1] gave a solubility thermodynamic at 1.5 h of 124 ± 8.7 µg/mL. `CCN1CCN(CC(=O)Nc2ccc(/C=C(\C#N)c3ccc(OC)c(OC)c3)cc2)CC1` [12c2] gave a solubility thermodynamic at 1.5 h of 85.1 ± 13.2 µg/mL.
